# Source: patent publication US20250074901A1, “NOVEL HETEROARYL COMPOUNDS” (ICAGEN, LLC, priority 2021, published 2025)
# Target: T1, Kv7.2 (Homo sapiens, UniProt O43526)
# T1 construct: expressed in transfected cells
# Test: Activation of Kv7.2 (in vitro assay, concentration response curve)
# Format: cell-based
# Conditions: for Emax: Kv7.2 activation max %; for EC50: activation of Kv7.2
# Procedure, shortened: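 EC50 is the half-maximal effective concentration, relative to the Emax observed for each compound in this in vitro assay. It was derived from concentration–response curves of the agonistic effect measured over a series of concentrations.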
SMILES,Emax,EC50
"O=C(NC(CCO)c1ccnc(OC(F)F)c1)N[C@H]1C[C@H](C(F)(F)F)C1 (stereo partly shown) [Example 117, 1-[1-[2-(difluoromethoxy)pyridin-4-yl]-3-hydroxypropyl]-3-[(1r,3r)-3-(trifluoromethyl)cyclobutyl]urea]",94%,1900 nM
"O=C(NCc1ccnc(OCF)c1)N[C@@H]1[C@H]2CCC(F)(F)[C@H]21 (racemic) [Example 176, 1-[[2-(fluoromethoxy)pyridin-4-yl]methyl]-3-[rac-(1R,5S,6R)-2,2-difluoro-6-bicyclo[3.1.0]hexanyl]urea]",62%,890 nM
"CC(C)(F)CNC(=O)NCc1ccnc(OC(F)F)c1 [Example 39, 1-[[2-(difluoromethoxy)pyridin-4-yl]methyl]-3-(2-fluoro-2-methylpropyl)urea]",55%,1950 nM
"O=C(NCc1ccnc(-n2cnc(C(F)(F)F)c2)c1)NCC1CCC1 [Example 41, 1-(cyclobutylmethyl)-3-[[2-[4-(trifluoromethyl)imidazol-1-yl]pyridin-4-yl]methyl]urea]",40%,1130 nM
"CC(NC(=O)NCc1ccnc(OC(F)F)c1)C1CCC1 (stereo not shown) [Example 17, 1-(1-cyclobutylethyl)-3-[[2-(difluoromethoxy)pyridin-4-yl]methyl]urea]",51%,510 nM
"O=C(NCc1ccnc(OC(F)F)c1)N[C@H]1C[C@@H](C(F)F)C1 [Example 137, 1-[[2-(difluoromethoxy)pyridin-4-yl]methyl]-3-[(1s,3s)-3-(difluoromethyl)cyclobutyl]urea]",48%,2410 nM
"O=C(NCc1ccnc(CC(F)(F)F)c1)NC12CC(F)(C1)C2 [Example 159, 1-(3-fluoro-1-bicyclo[1.1.1]pentanyl)-3-[[2-(2,2,2-trifluoroethyl)pyridin-4-yl]methyl]urea]",67%,5180 nM
"COC12CC(NC(=O)NCc3ccnc(OC(F)F)c3)(C1)C2 [Example 49, 1-[[2-(difluoromethoxy)pyridin-4-yl]methyl]-3-(3-methoxy-1-bicyclo[1.1.1]pentanyl)urea]",48%,1830 nM
"O=C(NCc1ccnc(-n2cccn2)c1)N[C@@H]1C[C@H]2CC[C@@H]1C2 (racemic) [Example 7, 1-[(2-pyrazol-1-ylpyridin-4-yl)methyl]-3-[rac-(1R,2R,4S)-2-bicyclo[2.2.1]heptanyl]urea]",101%,590 nM
"O=C(NCc1ccnc(OC(F)F)c1)N[C@H]1CC[C@](O)(C(F)(F)F)C1 (racemic) [Example 187, 1-[[2-(difluoromethoxy)pyridin-4-yl]methyl]-3-[rac-(1R,3S)-3-hydroxy-3-(trifluoromethyl)cyclopentyl]urea]",40%,1140 nM
"O=C(NCc1ccnc(OC(F)F)c1)NCC(O)C12CC(F)(C1)C2 (stereo not shown) [Example 289, 1-[[2-(difluoromethoxy)pyridin-4-yl]methyl]-3-[2-(3-fluoro-1-bicyclo[1.1.1]pentanyl)-2-hydroxyethyl]urea]",40%,980 nM
"O=C(NCc1ccnc(Br)c1)N[C@H]1C[C@@H]2CC[C@H]1C2 (racemic) [Example 27, 1-[(2-bromopyridin-4-yl)methyl]-3-[rac-(1R,2R,4S)-2-bicyclo[2.2.1]heptanyl]urea]",76%,2690 nM
"O=C(NCc1ccnc(OC(F)F)c1)NCC12CC(F)(C1)C2 [Example 32, 1-[[2-(difluoromethoxy)pyridin-4-yl]methyl]-3-[(3-fluoro-1-bicyclo[1.1.1]pentanyl)methyl]urea]",42%,830 nM
"CC(C)(C)CNC(=O)NCc1ccnc(OC(F)F)c1 [Example 29, 1-[[2-(difluoromethoxy)pyridin-4-yl]methyl]-3-(2,2-dimethylpropyl)urea]",63%,570 nM
"O=C(NCc1ccnc(OC(F)F)c1)NCC1(C(F)(F)F)CC1 [Example 229, 1-[[2-(difluoromethoxy)pyridin-4-yl]methyl]-3-[[1-(trifluoromethyl)cyclopropyl]methyl]urea]",49%,600 nM
"O=C(NCc1ccnc(CC(F)(F)F)c1)Nc1cccc(Cl)c1 [Example 275, 1-(3-chlorophenyl)-3-[[2-(2,2,2-trifluoroethyl)pyridin-4-yl]methyl]urea]",59%,550 nM

# More lines, in order of falling EC50, values ahead:
Emax,EC50,SMILES
53%,500 nM,"O=C(NCc1ccnc(OC(F)F)c1)NC1COC(C(F)(F)F)C1 (stereo not shown) [Example 258, 1-[[2-(difluoromethoxy)pyridin-4-yl]methyl]-3-[5-(trifluoromethyl)oxolan-3-yl]urea]"
48%,460 nM,"O=C(NCc1ccnc(OCC(F)CF)c1)Nc1cccc(Cl)c1 (stereo not shown) [Example 220, 1-(3-chlorophenyl)-3-[[2-(2,3-difluoropropoxy)pyridin-4-yl]methyl]urea]"
57%,390 nM,"O=C(NCc1ccnc(OC(F)F)c1)NC1CCCC1 [Example 20, 1-cyclopentyl-3-[[2-(difluoromethoxy)pyridin-4-yl]methyl]urea]"
51%,370 nM,"O=C(NCc1ccnc(SC(F)F)c1)N[C@H]1C[C@H](C(F)(F)F)C1 [Example 260, 1-[[2-(difluoro-methylsulfanyl)pyridin-4-yl]methyl]-3-[(1r,3r)-3-(trifluoromethyl)cyclobutyl]urea]"
52%,310 nM,"O=C(NCc1ccnc(OCC(F)CF)c1)N[C@H]1CC[C@@H](C(F)(F)F)C1 (mixture of isomers) [Example 225, 1-[[2-(2,3-difluoropropoxy)pyridin-4-yl]methyl]-3-[rac-(1R,3S)-3-(trifluoromethyl)cyclopentyl]urea]"
51%,300 nM,"CC(C)(C)CCNC(=O)NCc1ccnc(OC(F)F)c1 [Example 109, 1-[[2-(difluoromethoxy)pyridin-4-yl]methyl]-3-(3,3-dimethylbutyl)urea]"
55%,300 nM,"O=C(Nc1ccc(F)c(F)c1)NC(CO)c1ccnc(OC(F)F)c1 (stereo not shown) [Example 240, 1-[1-[2-(difluoromethoxy)pyridin-4-yl]-2-hydroxyethyl]-3-(3,4-difluorophenyl)urea]"
52%,290 nM,"C[C@@H](F)COc1cc(CNC(=O)N[C@H]2C[C@H](C(F)(F)F)C2)ccn1 [Example 199, 1-[[2-[(2R)-2-fluoropropoxy]pyridin-4-yl]methyl]-3-[(1r,3r)-3-(trifluoromethyl)cyclobutyl]urea]"
57%,260 nM,"C[C@H](F)COc1cc(CNC(=O)N[C@H]2C[C@H](C(F)(F)F)C2)ccn1 [Example 202, 1-[[2-[(2S)-2-fluoropropoxy]pyridin-4-yl]methyl]-3-[(1r,3r)-3-(trifluoromethyl)cyclobutyl]urea]"
58%,230 nM,"O=C(NCc1ccnc(OC(F)F)c1)N[C@H]1CC[C@H](C(F)(F)F)C1 (single isomer, unassigned) [Example 207]"
42%,210 nM,"O=C(NCc1ccnc(OCC(F)(F)F)n1)Nc1cccc(Cl)c1 [Example 203, 1-(3-chlorophenyl)-3-[[2-(2,2,2-trifluoroethoxy)pyrimidin-4-yl]methyl]urea]"
60%,210 nM,"CC(F)(F)COc1cc(CNC(=O)NC23CC(F)(C2)C3)ccn1 [Example 201, 1-[[2-(2,2-difluoropropoxy)pyridin-4-yl]methyl]-3-(3-fluoro-1-bicyclo[1.1.1]pentanyl)urea]"
50%,190 nM,"O=C(NCc1ccnc(OCC(F)(F)F)c1)N[C@H]1C[C@H](F)C1 [Example 162, 1-((1r,3r)-3-fluorocyclobutyl)-3-[[2-(2,2,2-trifluoroethoxy)pyridin-4-yl]methyl]urea]"
75%,170 nM,"O=C(NCc1cc(OCC(F)(F)F)ncn1)N[C@H]1C[C@H](C(F)(F)F)C1 [Example 279, 1-[[6-(2,2,2-trifluoroethoxy)pyrimidin-4-yl]methyl]-3-[(1r,3r)-3-(trifluoromethyl)cyclobutyl]urea]"
61%,170 nM,"O=C(NCc1ccnc(OC(F)F)c1)NC12CCC(CC1)CC2 [Example 131, 1-(1-bicyclo[2.2.2]octanyl)-3-[[2-(difluoromethoxy)pyridin-4-yl]methyl]urea]"
58%,170 nM,"O=C(NCc1ccnc(OC(F)F)c1)NC1CC2C(C1)C2(F)F (racemic) [Example 74, 1-[[2-(difluoromethoxy)pyridin-4-yl]methyl]-3-[rac-(1R,5S)-6,6-difluoro-3-bicyclo[3.1.0]hexanyl]urea]"
48%,160 nM,"O=C(NCc1ccnc(OCC(F)(F)F)c1)NCC1(F)CCC1 [Example 210, 1-[(1-fluorocyclobutyl)methyl]-3-[[2-(2,2,2-trifluoroethoxy)pyridin-4-yl]methyl]urea]"
65%,110 nM,"O=C(NCc1ccnc(OC(F)F)c1)N[C@@H]1CC[C@H](C(F)(F)F)C1 (racemic) [Example 59, 1-[[2-(difluoromethoxy)pyridin-4-yl]methyl]-3-[rac-(1R,3S)-3-(trifluoromethyl)cyclopentyl]urea]"
63%,90 nM,"CC12CC(NC(=O)NCc3ccnc(OC(F)F)c3)(C1)C2 [Example 182, 1-[[2-(difluoromethoxy)pyridin-4-yl]methyl]-3-(3-methyl-1-bicyclo[1.1.1]pentanyl)urea]"
73%,80 nM,"O=C(Nc1cccc(Cl)c1F)NC(CO)c1ccnc(OCC(F)(F)F)c1 (stereo not shown) [Example 150, 1-(3-chloro-2-fluorophenyl)-3-[2-hydroxy-1-[2-(2,2,2-trifluoroethoxy)pyridin-4-yl]ethyl]urea]"
58%,80 nM,"O=C(Nc1cccc(Cl)c1)N[C@@H](CO)c1ccnc(OCC(F)(F)F)c1 [Example 145, 1-(3-chlorophenyl)-3-[(1R)-2-hydroxy-1-[2-(2,2,2-trifluoroethoxy)pyridin-4-yl]ethyl]urea]"
78%,40 nM,O=C(NCc1ccnc(OC(F)F)c1)N[C@H]1C[C@H]2CCC[C@H]2C1 [Example 105]
